“Also recorded” adds a separate entry of the source. Read-outs that look alike come from different tables or passages of the source.
Assays:
[1] = test system: DIPG-13p and DIPG-IV cells; assay: cell viability with TG02 and/or RT; type: cell-based, human
[2] = test system: ERK5 auto-phosphorylation and cleaved PARP in tumor; assay: western blot of tumor lysates from treated mice; type: in vivo; conditions: mice sacrificed after 5 days of treatment with TG02
Procedure: Total ERK5 was used as a loading control.
All animal procedures were carried out ethically according to animal user protocols approved by Institutional Animal Care Committee (IACUC). 4-6 week-old non-obese diabetic severe combined immune deficiency male or female mice (NOD-SCID-Prkdc^scid) were injected with 1×10^5 SU-DIPG-13p cells or 1×10^5 SF8628 DIPG cells. Cells were re-suspended in 2 μl of PBS and injected into the pons/midbrain using a stereotactic frame (Stoelting) and automated cell injector (Stoelting) with cells delivered over 4 minutes. Coordinates were as follows from the Lambda suture (x=0.8 mm, y=−0.8 mm, z=−5.0 mm). […]

[3] = test system: SF8628 intracranial xenografts; assay: SF8628 orthotopic xenograft model; type: in vivo, mice; conditions: for KI-67 staining (proliferation marker): 20 mg/kg, vs vehicle
Procedure: All animal procedures were carried out ethically according to animal user protocols approved by Institutional Animal Care Committee (IACUC). 4-6 week-old non-obese diabetic severe combined immune deficiency male or female mice (NOD-SCID-Prkdc^scid) were injected with 1×10^5 SU-DIPG-13p cells or 1×10^5 SF8628 DIPG cells. Cells were re-suspended in 2 μl of PBS and injected into the pons/midbrain using a stereotactic frame (Stoelting) and automated cell injector (Stoelting) with cells delivered over 4 minutes. Coordinates were as follows from the Lambda suture (x=0.8 mm, y=−0.8 mm, z=−5.0 mm). […] Mice were treated for two cycles (5 days on, with two days off per cycle). Mice were sacrificed at sign of neurological duress and brains were extracted and fixed in 4% PFA.
Also, the present disclosure used two established cell lines derived from transgenic mouse models of DIPG. Both lines are p53 null and express PDGFB, differing only in their H3.3 mutation status.
In a first DIPG mouse model, NOD-SCID gamma mice were injected with 2×10^5 SF8628 cells in the midbrain.
For each cycle, the compounds were administered 20 mg/kg/day for 5 days, followed with 2 days of rest period. Each mice received 2 cycles of treatment.

TLK2 = TLK2 (Homo sapiens, UniProt Q86UE8); conditions: cited from earlier work
[4] = test system: DIPG-007 and DIPG-IV cells; assay: Annexin-PI flow cytometry apoptosis assay; type: cell-based, human; conditions: 48 h, vs DMSO vehicle control
Procedure: FIGS. 5A-5K provide that pharmacological inhibition of ERK5 triggered cell death and apoptosis in DIPG cells. […] (5C-5E).
Apoptosis was quantified using the Pacific Blue Annexin V Apoptosis Detection Kit with propidium iodide (BioLegend, San Diego, Calif. Cat #640926). Analysis was performed at the Flow Cytometry Core, Rangos Research Center, UPMC Children's Hospital of Pittsburgh.

CYP1A2 = CYP1A2 (Homo sapiens, UniProt P05177); conditions: cited from earlier work
Kit = Kit (Homo sapiens, UniProt P10721); conditions: cited from earlier work
[5] = test system: ERK5 phosphorylation in DIPG-007 and DIPG-IV cells; assay: Western blot of ERK5 phosphorylation in DIPG cells; type: cell-based, human; conditions: 50 nM
Procedure: Cell pellets were lysed in PLC lysis buffer containing protease and phosphatase inhibitors (Roche Inc.). Protein lysates were quantified using the bicinchoninic acid (BCA) assay (Pierce Chemical Co., Rockford, Ill.). 30 μg of total protein lysate was loaded in 10% SDS-PAGE gels and electrophoresed. Proteins were transferred to PVDF membranes using a semi-dry transfer apparatus (Bio-Rad). Membranes were blocked for one hour and probed for various proteins overnight in 5% non-fat milk or 5% BSA in Tris Buffered Saline Solution, 0.5% Tween-20 (TBST) or Phosphate Buffered Saline Solution with 0.5% Tween-20 (PBST). Membranes were washed for 5 mins in TBST (3×) and incubated with horseradish peroxidase-conjugated antibodies specific for the primary antibody (BioRad Laboratories, Inc., CA, USA). Binding was detected using Chemiluminescence Reagent Plus (PerkinElmer Inc., MA, USA).

ASK1 = ASK1 (Homo sapiens, UniProt Q99683); conditions: cited from earlier work
FLT3 = FLT3 (Homo sapiens, UniProt P36888); conditions: Source Invitrogen; 10-point titration in duplicates, done once; cited from earlier work
[6] = tissue and plasma distribution after a single PO dose; type: in vivo, female nude mice
Procedure: Three mice were sacrificed at a time 10 min, 30 min, 1, 2, 4, 8, and 24 hrs after dosing and pharmacokinetic levels were assessed.

DIPG4 = assay: IC50 of two forms of TG02 in DIPG cell lines in vitro; type: cell-based, human; conditions: DIPG4 cell line; listed as TG02 obtained from Adastra Pharmaceuticals
Procedure: (§1) Direct cell counts were performed using the Countess II FL Automated Cell Counter (ThermoFisher Scientific). Alamar blue viability (ThermoFisher Scientific) and the 5-bromo-2′-deoxyuridine (BrdU) incorporated cell proliferation assay (Cell Signaling Technology Cat #6813) were performed using the manufacturer's standard protocol. EC50 curve analysis was performed using raw fluorescent Alamar blue values that were inputted into PRISM 7.0. Drug concentrations were log 10 transformed and values normalized to percent viability with respect to vehicle treated cells. EC50 values were interpolated from a log inhibitor vs. normalized response with variable slope using a least square fit model.

DIPG13p = assay: as above; type: cell-based, human; conditions: DIPG13p cell line; listed as TG02 obtained from Adastra Pharmaceuticals
Procedure: as §1

SF8628 = assay: as above; type: cell-based, human; conditions: SF8628 cell line; listed as TG02 obtained from Adastra Pharmaceuticals
Procedure: as §1

DIPG007 = assay: as above; type: cell-based, human; conditions: DIPG007 cell line; listed as TG02 obtained from Adastra Pharmaceuticals
Procedure: as §1

PKCε = PKCε (Homo sapiens, UniProt Q02156); conditions: cited from earlier work
[7] = test system: DIPG-IV cells expressing MYC S62D; assay: EC50 of TG02 in DIPG-IV cells expressing MYC S62D; type: cell-based, human; conditions: MYC S62D vs empty vector control
Procedure: as §1

four DIPG cell lines = assay: viability of DIPG cell lines treated in vitro with TG02; type: cell-based, human
Procedure: as §1

Chain of CYP1A2 (P05177 whole entry): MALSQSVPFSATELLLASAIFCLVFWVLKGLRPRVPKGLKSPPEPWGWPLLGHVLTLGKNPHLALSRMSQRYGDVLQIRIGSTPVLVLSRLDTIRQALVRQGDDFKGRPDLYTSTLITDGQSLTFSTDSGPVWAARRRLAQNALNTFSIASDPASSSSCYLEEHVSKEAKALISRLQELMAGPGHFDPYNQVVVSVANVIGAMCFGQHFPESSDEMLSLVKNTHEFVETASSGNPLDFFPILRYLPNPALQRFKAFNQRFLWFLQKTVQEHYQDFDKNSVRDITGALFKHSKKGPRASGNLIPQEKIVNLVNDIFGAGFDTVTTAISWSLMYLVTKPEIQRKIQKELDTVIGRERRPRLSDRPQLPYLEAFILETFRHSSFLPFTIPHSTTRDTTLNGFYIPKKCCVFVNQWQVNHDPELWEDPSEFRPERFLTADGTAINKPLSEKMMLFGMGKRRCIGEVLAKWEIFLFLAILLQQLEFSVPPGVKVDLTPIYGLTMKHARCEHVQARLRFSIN
Chain of ASK1 (Q99683 whole entry): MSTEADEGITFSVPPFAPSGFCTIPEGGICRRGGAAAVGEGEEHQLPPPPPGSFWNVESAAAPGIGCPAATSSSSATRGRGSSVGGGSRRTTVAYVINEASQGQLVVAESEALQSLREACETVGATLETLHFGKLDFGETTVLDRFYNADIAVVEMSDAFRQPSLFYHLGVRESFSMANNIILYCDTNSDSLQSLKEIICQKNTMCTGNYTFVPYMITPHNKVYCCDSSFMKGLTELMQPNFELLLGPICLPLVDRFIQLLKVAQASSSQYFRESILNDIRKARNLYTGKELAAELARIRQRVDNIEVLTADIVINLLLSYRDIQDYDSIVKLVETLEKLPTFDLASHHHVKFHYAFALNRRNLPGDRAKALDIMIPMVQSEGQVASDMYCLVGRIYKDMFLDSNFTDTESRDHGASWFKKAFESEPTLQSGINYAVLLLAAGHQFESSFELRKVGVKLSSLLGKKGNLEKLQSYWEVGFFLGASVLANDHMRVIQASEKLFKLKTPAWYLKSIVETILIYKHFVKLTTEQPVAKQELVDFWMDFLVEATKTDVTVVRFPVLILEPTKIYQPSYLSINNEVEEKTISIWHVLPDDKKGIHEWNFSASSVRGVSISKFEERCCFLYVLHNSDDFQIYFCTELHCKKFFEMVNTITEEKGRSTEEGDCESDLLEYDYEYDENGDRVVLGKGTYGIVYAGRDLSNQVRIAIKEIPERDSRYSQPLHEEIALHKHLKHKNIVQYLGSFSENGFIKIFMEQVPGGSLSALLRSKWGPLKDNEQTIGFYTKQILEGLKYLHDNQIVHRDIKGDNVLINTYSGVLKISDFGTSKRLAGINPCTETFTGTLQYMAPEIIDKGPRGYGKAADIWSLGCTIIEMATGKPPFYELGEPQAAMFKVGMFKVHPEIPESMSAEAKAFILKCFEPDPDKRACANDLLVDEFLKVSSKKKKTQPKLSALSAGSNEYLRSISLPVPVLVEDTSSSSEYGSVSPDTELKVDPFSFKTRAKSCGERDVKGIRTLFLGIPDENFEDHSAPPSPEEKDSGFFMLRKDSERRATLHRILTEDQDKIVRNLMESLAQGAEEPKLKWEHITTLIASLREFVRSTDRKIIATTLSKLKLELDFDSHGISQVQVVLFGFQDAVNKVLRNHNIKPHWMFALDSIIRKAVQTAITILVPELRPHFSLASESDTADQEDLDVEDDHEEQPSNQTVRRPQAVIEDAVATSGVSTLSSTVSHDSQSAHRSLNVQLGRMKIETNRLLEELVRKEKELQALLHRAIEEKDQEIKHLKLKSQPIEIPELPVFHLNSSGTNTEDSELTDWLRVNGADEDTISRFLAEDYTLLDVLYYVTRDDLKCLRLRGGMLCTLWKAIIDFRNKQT
Chain of FLT3 (P36888 27-993): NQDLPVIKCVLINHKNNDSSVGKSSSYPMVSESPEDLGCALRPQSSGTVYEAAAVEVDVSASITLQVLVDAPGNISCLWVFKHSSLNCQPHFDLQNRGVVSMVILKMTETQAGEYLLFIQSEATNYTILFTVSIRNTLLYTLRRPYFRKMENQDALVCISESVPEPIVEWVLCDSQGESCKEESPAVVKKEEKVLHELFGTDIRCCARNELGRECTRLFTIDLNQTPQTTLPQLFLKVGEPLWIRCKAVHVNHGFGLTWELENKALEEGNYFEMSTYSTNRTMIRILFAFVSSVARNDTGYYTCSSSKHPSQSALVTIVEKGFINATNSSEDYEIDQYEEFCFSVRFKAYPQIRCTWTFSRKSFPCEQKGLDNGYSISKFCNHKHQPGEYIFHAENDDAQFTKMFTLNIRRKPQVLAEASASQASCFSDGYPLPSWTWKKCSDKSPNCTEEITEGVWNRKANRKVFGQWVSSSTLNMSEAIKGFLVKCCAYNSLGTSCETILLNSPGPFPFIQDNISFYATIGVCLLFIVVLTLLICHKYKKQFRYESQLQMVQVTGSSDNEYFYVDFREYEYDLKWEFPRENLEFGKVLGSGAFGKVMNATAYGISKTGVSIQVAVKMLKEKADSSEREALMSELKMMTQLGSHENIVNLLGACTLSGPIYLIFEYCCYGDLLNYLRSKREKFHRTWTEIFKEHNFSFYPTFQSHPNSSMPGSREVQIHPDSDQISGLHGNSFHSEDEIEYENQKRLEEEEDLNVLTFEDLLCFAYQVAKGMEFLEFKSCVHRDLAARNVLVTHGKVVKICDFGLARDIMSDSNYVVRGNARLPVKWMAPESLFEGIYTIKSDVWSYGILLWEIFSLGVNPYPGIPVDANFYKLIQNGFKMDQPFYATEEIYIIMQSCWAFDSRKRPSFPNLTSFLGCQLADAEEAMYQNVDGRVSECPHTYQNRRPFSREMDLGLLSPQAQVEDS
Chain of PKCε (Q02156 whole entry): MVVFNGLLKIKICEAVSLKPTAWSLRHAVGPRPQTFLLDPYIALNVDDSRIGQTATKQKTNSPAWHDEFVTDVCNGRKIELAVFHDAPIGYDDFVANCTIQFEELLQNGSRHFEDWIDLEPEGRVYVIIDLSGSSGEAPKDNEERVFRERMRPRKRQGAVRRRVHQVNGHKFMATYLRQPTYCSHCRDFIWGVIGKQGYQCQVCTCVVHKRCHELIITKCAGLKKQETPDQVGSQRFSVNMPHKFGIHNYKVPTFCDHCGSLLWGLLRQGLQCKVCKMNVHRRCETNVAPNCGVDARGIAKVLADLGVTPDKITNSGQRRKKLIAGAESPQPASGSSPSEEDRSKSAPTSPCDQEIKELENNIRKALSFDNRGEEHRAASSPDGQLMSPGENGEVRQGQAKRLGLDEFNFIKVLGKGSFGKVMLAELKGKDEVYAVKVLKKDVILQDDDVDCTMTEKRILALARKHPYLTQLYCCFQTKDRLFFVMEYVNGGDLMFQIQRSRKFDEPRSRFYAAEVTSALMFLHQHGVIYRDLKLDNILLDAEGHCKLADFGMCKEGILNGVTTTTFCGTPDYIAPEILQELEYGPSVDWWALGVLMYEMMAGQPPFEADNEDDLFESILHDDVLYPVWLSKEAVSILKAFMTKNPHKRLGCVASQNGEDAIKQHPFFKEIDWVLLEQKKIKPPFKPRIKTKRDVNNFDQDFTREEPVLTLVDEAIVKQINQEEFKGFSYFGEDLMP
Chain of Kit (P10721 26-976): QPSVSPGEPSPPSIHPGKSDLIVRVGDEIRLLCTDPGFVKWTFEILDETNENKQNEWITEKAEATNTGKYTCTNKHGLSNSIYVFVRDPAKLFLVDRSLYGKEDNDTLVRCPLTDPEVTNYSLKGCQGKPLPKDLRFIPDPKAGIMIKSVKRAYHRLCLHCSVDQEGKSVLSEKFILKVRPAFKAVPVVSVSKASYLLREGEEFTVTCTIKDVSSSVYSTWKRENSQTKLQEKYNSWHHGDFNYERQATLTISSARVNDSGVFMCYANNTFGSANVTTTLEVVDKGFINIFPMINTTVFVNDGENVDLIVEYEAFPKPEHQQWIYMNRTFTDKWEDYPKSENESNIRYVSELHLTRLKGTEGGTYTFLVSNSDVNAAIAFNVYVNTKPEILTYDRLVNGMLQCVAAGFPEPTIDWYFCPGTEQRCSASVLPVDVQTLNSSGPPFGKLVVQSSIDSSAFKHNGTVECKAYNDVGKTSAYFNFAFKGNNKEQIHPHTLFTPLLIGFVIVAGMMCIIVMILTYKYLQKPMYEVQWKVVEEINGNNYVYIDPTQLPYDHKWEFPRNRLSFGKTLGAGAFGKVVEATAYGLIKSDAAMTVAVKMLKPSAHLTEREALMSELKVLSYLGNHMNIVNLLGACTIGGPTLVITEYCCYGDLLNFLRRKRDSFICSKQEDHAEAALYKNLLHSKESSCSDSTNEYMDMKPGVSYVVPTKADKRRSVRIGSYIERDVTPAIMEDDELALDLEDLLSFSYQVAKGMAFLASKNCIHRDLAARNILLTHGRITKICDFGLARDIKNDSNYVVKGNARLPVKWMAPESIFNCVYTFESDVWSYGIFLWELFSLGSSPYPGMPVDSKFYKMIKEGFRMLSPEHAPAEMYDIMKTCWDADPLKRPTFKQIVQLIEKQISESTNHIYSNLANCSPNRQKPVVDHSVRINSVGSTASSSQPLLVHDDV

CN1C/C=C/CCOc2cccc(c2)-c2ccnc(n2)Nc2cccc(c2)C1 [TG02, (16E)-14-methyl-20-oxa-5,7,14,27-tetraazatetracyclo[19.3.1.12,6.18,12]heptacosa-1(25),2(27),3,5,8(26),9,11,16,21,23-decaene]
cell viability, RT and TG02 ([1]; 50 nM TG02 and 10 Gy of RT (2-Gy fractions over 5 days), Day 5, compared to RT or TG02 only): statistically significant reduction in cell viability
cell viability, TG02 alone ([1]; 50 nM of TG02, Day 5, vs DMSO control): significantly reduced cell viability
in vivo ERK5 auto-phosphorylation [2]: inhibition of ERK5 auto-phosphorylation
in vivo apoptosis by cleaved PARP [2]: induction of apoptosis
KI-67 staining (proliferation marker) ([3]; 2 cycles): reduced KI-67 staining
KI-67 staining (proliferation marker) ([3]; 2 cycles, listed as TG02 obtained from Adastra Pharmaceuticals): significantly reduced KI67 expression; also recorded: significantly reduced K167 expression
survival vs vehicle ([3]; 20 mg/kg/day for 5 days, 2 days rest, 2 cycles): statistically significant increased median survival
median survival ([3]; TG02 20 mg/kg, 2 cycles of 5 days on 2 days off, vehicle 33 days): 59 days
extension of median survival time ([3]; mice intracranially engrafted with DIPG cells): nearly two-fold
inhibition at 100 nm (TLK2): less than 50%
apoptosis (Annexin-PI) [4]: significantly higher rates of apoptosis; also recorded: increased populations in early apoptosis
viable cells (Annexin negative, PI negative) [4]: decreased viable cells
substrate of CYP1A2 (CYP1A2): substrate
inhibition at 100 nm (Kit): less than 50%
ERK5 Thr218/Tyr220 phosphorylation (regulated by MEK5) [5]: did not inhibit
ERK5 auto-phosphorylation and ERK5 activity sites (Ser731 and Thr733) [5]: confirmed to inhibit
inhibition at 100 nm (ASK1): less than 50%
IC50 (FLT3): 0.019 µM
blood-brain barrier penetration ([6]; mouse, in vivo): blood-brain barrier penetrant
Cmax in the brain compared to plasma ([6]; single PO dose of 75 mg/kg): at least twice as high
exposure (AUC0-last) in the brain compared to plasma ([6]; single PO dose of 75 mg/kg): at least twice as high
IC50 (DIPG4): 0.06 µM
IC50 (DIPG13p): 0.08 µM
IC50 (SF8628): 0.07 µM
IC50 (DIPG007): 0.093 µM
inhibition at 100 nm (PKCε): less than 50%
resistance to TG02 [7]: promoted resistance to TG02
IC50 (four DIPG cell lines; Homo sapiens, read-out: IC50 of TG02 in vitro against DIPG cell lines, approximate): ~0.1 µM
EC50 (four DIPG cell lines; Homo sapiens, median of four DIPG cell lines in vitro, read-out: median EC50 (decreased viability)): 0.075 µM
EC50 (four DIPG cell lines; Homo sapiens, range over four DIPG cell lines in vitro, read-out: EC50 range (decreased viability)): 0.06 to 0.093 µM
apoptosis (four DIPG cell lines; four DIPG cell lines in vitro): increased apoptosis

From patent publication US11173160B2 (UNIVERSITY OF PITTSBURGH—OF THE COMMONWEALTH SYSTEM OF …, priority 2019, dated 2021)
